Measurements from patent publication US20250290117A1, “MOLECULAR PHENOTYPIC ANTIMICROBIAL SUSCEPTIBILITY TESTING” (priority 2024, published 2025).

Assays:
Acinetobacter baumannii = assay: Molecular phenotypic antimicrobial susceptibility test (extraction/DNA purification prior to PCR); assay type: cell-based
Protocol: Detection of Molecular Phenotypic Antimicrobial Susceptibility. Disclosed herein are the methods for the detection of phenotypic antimicrobial susceptibility via molecular methods. The present invention describes how a specimen 100 with a known microbial load is incubated and then exposed to a panel of antimicrobial agents to determine sensitivity (prevention of growth) or resistance (allowance of growth) to the specific antimicrobial agents tested utilizing molecular methods. Sample Collection. Specimens 100 are collected from patients using sterile collection processes that are employed in routine clinical care. Specimens are transported to the testing facility in boric acid preservative. […] The specimens 100 are put through a pathogen identification process using PCR technology (e.g., using the first sample 104). The process for pathogen isolation includes steps of harvesting the pathogen (e.g., via centrifugation), isolating pathogen DNA via a DNA isolation and/or purification kit, and performing PCR on the pathogen DNA via PCR components (e.g., primers, enzymes, buffers) as would be known to the skilled artisan. Simultaneously, an additional aliquot of the same specimen (e.g., the second sample 108) is placed with liquid culture media and incubated for 4-6 hours. This aliquot is used for antimicrobial susceptibility testing if indicated based on the pathogen detection results. […] Specimens 100 with lower pathogen loads could also be utilized in the antibiotic susceptibility phase of testing with or without a longer incubation period. […] Antimicrobial solutions are prepared at known concentrations. The specific antimicrobials and their concentrations are selected based on the pathogen of interest and the described antimicrobial resistance breakpoints for that specimen pathogen and antimicrobial combination. These antimicrobials have been selected based on those commonly utilized by healthcare providers in routine clinical care for the specific type of suspected infection. The number and types of antimicrobials utilized can be customized based on the infection source, pathogen detected, patient-specific factors such as allergies or other health conditions (e.g., chronic kidney disease or concurrent medication use), or healthcare provider preferences such as antimicrobial availability or cost. The antimicrobial solutions are prepared in liquid culture media (such as Muller Hinton Broth) to achieve the desired antimicrobial concentration and are then stored at −80° C. until use. For a given specimen, each antimicrobial is tested at a single or multiple antimicrobial concentration(s) which is its established breakpoints for sensitivity. The antimicrobial solutions are prepared and plated out for each specific pathogen. This allows ease of use on the day of testing after defrosting the plate 112. Table 1, which illustrates the results of molecular phenotypic antimicrobial susceptibility testing when more than one organism is present in the source specimen, provides an example of an antimicrobial plate 112 prepared for this purpose. Of note, control wells containing only culture media are present on all plates 112. This allows for evaluation of pathogen load when no antimicrobial is present. Specimen Exposure to Antimicrobial Agents. The 1 mL aliquot of the specimen 100 previously mixed with culture media and incubated is obtained. Using optical density measurements as a guide, the specimen 100 is diluted to 0.5 McFarland. The specimen 100 is then placed into the previously prepared antimicrobial susceptibility testing plate 112. Each plate 112 is prepared for a single specimen 100 for a specified pathogen based on its detection. For example, if the specimen 100 has more than one pathogen detected that needs different antimicrobial concentrations for exposure due to different minimum inhibitory concentration breakpoints for one or more organisms, then more than one antimicrobial exposure plate 112 may be needed. […]

S. aureus = assay: Molecular phenotypic antimicrobial susceptibility test with direct PCR (no extraction DNA purification step); assay type: cell-based, Staphylococcus aureus; details: for Ct at Sensitive Breakpoint: S. aureus isolate NR-46412 HIP13170, Ct at control (average) 18.824; for Molecular Antimicrobial Susceptibility Result: S. aureus isolate NR-46412 HIP13170, at sensitive breakpoint
Protocol: Detection of Molecular Phenotypic Antimicrobial Susceptibility. Disclosed herein are the methods for the detection of phenotypic antimicrobial susceptibility via molecular methods. The present invention describes how a specimen 100 with a known microbial load is incubated and then exposed to a panel of antimicrobial agents to determine sensitivity (prevention of growth) or resistance (allowance of growth) to the specific antimicrobial agents tested utilizing molecular methods.
Sample Collection. Specimens 100 are collected from patients using sterile collection processes that are employed in routine clinical care. Specimens are transported to the testing facility in boric acid preservative.
Preparation of the Specimens for Testing. […] The process for pathogen isolation includes steps of harvesting the pathogen (e.g., via centrifugation), isolating pathogen DNA via a DNA isolation and/or purification kit, and performing PCR on the pathogen DNA via PCR components (e.g., primers, enzymes, buffers) as would be known to the skilled artisan. […] This aliquot is used for antimicrobial susceptibility testing if indicated based on the pathogen detection results. […] Specimens 100 with lower pathogen loads could also be utilized in the antibiotic susceptibility phase of testing with or without a longer incubation period.
Preparation of Antimicrobial Susceptibility Testing Plates. Antimicrobial solutions are prepared at known concentrations. The specific antimicrobials and their concentrations are selected based on the pathogen of interest and the described antimicrobial resistance breakpoints for that specimen pathogen and antimicrobial combination. These antimicrobials have been selected based on those commonly utilized by healthcare providers in routine clinical care for the specific type of suspected infection. The number and types of antimicrobials utilized can be customized based on the infection source, pathogen detected, patient-specific factors such as allergies or other health conditions (e.g., chronic kidney disease or concurrent medication use), or healthcare provider preferences such as antimicrobial availability or cost.
The antimicrobial solutions are prepared in liquid culture media (such as Muller Hinton Broth) to achieve the desired antimicrobial concentration and are then stored at −80° C. until use. For a given specimen, each antimicrobial is tested at a single or multiple antimicrobial concentration(s) which is its established breakpoints for sensitivity. The antimicrobial solutions are prepared and plated out for each specific pathogen. […] This allows for evaluation of pathogen load when no antimicrobial is present.
Specimen Exposure to Antimicrobial Agents. The 1 mL aliquot of the specimen 100 previously mixed with culture media and incubated is obtained. Using optical density measurements as a guide, the specimen 100 is diluted to 0.5 McFarland.
Antimicrobial exposure plates are typically placed into an incubator for 12-16 hours.
Nucleic Acid Amplification of Antimicrobial Agent Exposed Pathogens. The antimicrobial exposure plate is removed after the period of incubation. The specimen then undergoes a purification or lysis step. For example, the specimen may undergo a purification step (e.g., magnetic bead-based or other separation protocol to isolate genetic material). In another example, the specimen may undergo a cell lysis step. For example, buffer (e.g., lysis buffer) may be added and incubated in the thermal cycler for preparation for direct PCR. Next, the specimen may undergo a polymerase chain reaction (PCR) testing protocol, whereby a semi-quantitative PCR method is utilized. This may be completed either with or without a specific extraction protocol step. The pathogens can be individually targeted and detected, or a universal genetic sequence can be utilized to detect the antimicrobial susceptibility of the specimen as a whole.

[1] = A. baumannii isolate 1, Ct at control (average) 18.811
[2] = A. baumannii isolate 1, at sensitive breakpoint
[3] = A. baumannii isolate 2, Ct at control (average) 18.763
[4] = A. baumannii isolate 2, at sensitive breakpoint
[5] = A. baumannii isolate 3, Ct at control (average) 18.799
[6] = A. baumannii isolate 3, at sensitive breakpoint
[7] = A. baumannii isolate 4, Ct at control (average) 18.061
[8] = A. baumannii isolate 4, at sensitive breakpoint
[9] = A. baumannii isolate 5, Ct at control (average) 18.191
[10] = A. baumannii isolate 5, at sensitive breakpoint

Row | Compound | Ct at Sensitive Breakpoint (Acinetobacter baumannii; [1]) | Molecular Antimicrobial Susceptibility Result (Acinetobacter baumannii; [2]) | Ct at Sensitive Breakpoint (Acinetobacter baumannii; [3]) | Molecular Antimicrobial Susceptibility Result (Acinetobacter baumannii; [4]) | Ct at Sensitive Breakpoint (Acinetobacter baumannii; [5]) | Molecular Antimicrobial Susceptibility Result (Acinetobacter baumannii; [6]) | Ct at Sensitive Breakpoint (Acinetobacter baumannii; [7]) | Molecular Antimicrobial Susceptibility Result (Acinetobacter baumannii; [8]) | Ct at Sensitive Breakpoint (Acinetobacter baumannii; [9]) | Molecular Antimicrobial Susceptibility Result (Acinetobacter baumannii; [10]) | Ct at Sensitive Breakpoint (S. aureus) | Molecular Antimicrobial Susceptibility Result (S. aureus)
1 | CO/N=C(\C(=O)N[C@@H]1C(=O)N2C(C(=O)[O-])=C(C[N+]3(C)CCCC3)CS[C@H]12)c1csc(N)n1 [Cefepime] | 19.944 | Resistant | 19.194 | Resistant | 19.873 | Sensitive (Antimicrobial wells with pathogen load detected below the control wells (typically >2 cycle thresholds later) may be reported as Sensitive) | 18.955 | Resistant | 18.489 | Resistant | – | –
2 | CO[C@@]1(NC(=O)Cc2cccs2)C(=O)N2C(C(=O)O)=C(COC(N)=O)CS[C@@H]21 [Cefoxitin] | – | – | – | – | – | – | – | – | – | – | 14.322 | Resistant
3 | CO/N=C(\C(=O)N[C@@H]1C(=O)N2C(C(=O)O)=C(CSc3nc(=O)c(=O)[nH]n3C)CS[C@H]12)c1csc(N)n1 [Ceftriaxone] | 16.497 | Resistant | 19.075 | Resistant | 19.667 | Resistant | 18.774 | Resistant | 18.571 | Resistant | – | –
4 | O=C(O)c1cn(C2CC2)c2cc(N3CCNCC3)c(F)cc2c1=O [Ciprofloxacin] | 16.306 | Resistant | 19.471 | Resistant | 17.802 | Resistant | 18.101 | Resistant | 18.773 | Resistant | 18.586 | Resistant
5 | C[C@H]1COc2c(N3CCN(C)CC3)c(F)cc3c(=O)c(C(=O)O)cn1c23 [Levofloxacin] | 17.268 | Resistant | 19.405 | Resistant | 18.253 | Resistant | 18.709 | Resistant | 19.052 | Resistant | 18.264 | Resistant
6 | C[C@@H](O)[C@H]1C(=O)N2C(C(=O)O)=C(S[C@@H]3CN[C@H](C(=O)N(C)C)C3)[C@H](C)[C@H]12 [Meropenem] | 18.123 | Resistant | 19.761 | Resistant | 18.077 | Resistant | 17.553 | Resistant | 20.173 | Resistant | – | –
7 | O=C1CN(/N=C/c2ccc([N+](=O)[O-])o2)C(=O)N1 [Nitrofurantoin] | – | – | – | – | – | – | – | – | – | – | 31.922 | Sensitive (Antimicrobial wells with pathogen load detected below the control wells (typically >2 cycle thresholds later) may be reported as Sensitive)
8 | CN(C)[C@@H]1C(O)=C(C(N)=O)C(=O)[C@@]2(O)C(O)=C3C(=O)c4c(O)cccc4[C@@](C)(O)[C@H]3C[C@@H]12 [Tetracycline] | – | – | – | – | – | – | – | – | – | – | 18.43 | Resistant
9 | CN[C@H](CC(C)C)C(=O)N[C@H]1C(=O)N[C@@H](CC(N)=O)C(=O)N[C@H]2C(=O)N[C@H]3C(=O)N[C@H](C(=O)N[C@H](C(=O)O)c4cc(O)cc(O)c4-c4cc3ccc4O)[C@H](O)c3ccc(c(Cl)c3)Oc3cc2cc(c3O[C@@H]2O[C@H](CO)[C@@H](O)[C@H](O)[C@H]2O[C@H]2C[C@](C)(N)[C@H](O)[C@H](C)O2)Oc2ccc(cc2Cl)[C@H]1O [Vancomycin] | – | – | – | – | – | – | – | – | – | – | 17.078 | Resistant
10 | Ampicillin/Sulbactam | – | – | – | – | – | – | 19.447 | Sensitive (Antimicrobial wells with pathogen load detected below the control wells (typically >2 cycle thresholds later) may be reported as Sensitive) | 19.682 | Sensitive (Antimicrobial wells with pathogen load detected below the control wells (typically >2 cycle thresholds later) may be reported as Sensitive) | – | –
11 | Piperacillin/Tazobactam | 17.127 | Resistant | 19.691 | Resistant | 18.647 | Resistant | 16.207 | Resistant | 17.081 | Resistant | – | –
